Activity calls are given as the source filed them. The calls are words filed in the database; no cut-off is given here.
Columns and labels:
Leishmania donovani [1] = experiment: Antileishmanial activity against extracellular promastigote stage of Leishmania donovani after 96 hrs by luciferase reporter gene assay; assay type: functional, organism-based
[2] = target: Trypanothione reductase (Leishmania donovani) (UniProt P39050); experiment: Inhibition of recombinant Leishmania donovani trypanothione reductase expressed in Escherichia coli BL21 (DE3) using trypanothione disulphide as substrate at 100 uM preincubated for 5 mins followed by substrate addition by microplate reader analysis relative to control
Trypanothione reductase = Trypanothione reductase (Leishmania donovani, UniProt P39050); experiment: Competitive inhibition of recombinant Leishmania donovani trypanothione reductase expressed in Escherichia coli BL21 (DE3) by Dixon plot analysis in presence of trypanothione disulphide
[3] = (§1) Selectivity index, ratio of CC50 for African green monkey Vero cells to IC50 for amastigote stage of Leishmania donovani infected in mouse J774A.1 cells; assay type: functional
[4] = target: Trypanothione reductase (Leishmania donovani) (UniProt P39050); experiment: Inhibition of recombinant Leishmania donovani trypanothione reductase expressed in Escherichia coli BL21 (DE3) using trypanothione disulphide as substrate at 50 uM preincubated for 5 mins followed by substrate addition by microplate reader analysis relative to control
Leishmania donovani [5] = experiment: Antileishmanial activity against amastigote stage of Leishmania donovani infected in mouse J774A.1 cells after 72 hrs by luciferase reporter gene assay; assay type: functional, organism-based; conditions: J774.A1, 72 h
[6] = Cytotoxicity against African green monkey Vero cells assessed as cell viability after 72 hrs by MTT assay; assay type: cell-based; conditions: chlorocebus sabaeus
Vero = experiment: as §1; assay type: functional

Sequence of Trypanothione reductase (P39050 whole entry): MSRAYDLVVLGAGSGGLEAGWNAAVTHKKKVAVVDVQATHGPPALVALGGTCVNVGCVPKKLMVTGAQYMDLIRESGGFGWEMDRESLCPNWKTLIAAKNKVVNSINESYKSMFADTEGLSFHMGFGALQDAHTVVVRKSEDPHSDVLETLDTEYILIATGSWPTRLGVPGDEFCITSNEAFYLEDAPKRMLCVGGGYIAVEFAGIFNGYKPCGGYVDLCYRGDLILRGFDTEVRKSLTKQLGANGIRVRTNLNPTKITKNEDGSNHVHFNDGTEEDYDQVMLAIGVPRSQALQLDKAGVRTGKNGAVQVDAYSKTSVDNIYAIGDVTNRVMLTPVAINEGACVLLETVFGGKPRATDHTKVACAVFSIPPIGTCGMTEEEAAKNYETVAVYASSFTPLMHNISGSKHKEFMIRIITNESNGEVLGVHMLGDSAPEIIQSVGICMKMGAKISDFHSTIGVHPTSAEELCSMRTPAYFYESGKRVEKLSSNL
Sequence of Trypanothione reductase (Leishmania donovani) (P39050 whole entry): as above

Molecule | IC50 (Leishmania donovani [1]) | inhibition [2] | Ki (Trypanothione reductase) | inhibition [4] | IC50 (Leishmania donovani [5]) | Ratio CC50/IC50 [3] | CC50 at 72 h [6] | Ratio CC50/IC50 (Vero)
COC(=O)c1cc2c([nH]c3ccccc32)c(C2Nc3ccccc3C(=O)N2c2ccc(F)cc2)n1 (stereo unspecified) | 4.6 µM | 96% | 3.9 µM | 81% | 6 µM | 36 | 217 µM | –
CCCCCN1C(=O)c2ccccc2NC1c1nc(C(=O)OC)cc2c1[nH]c1ccccc12 (stereo unspecified) | 9.9 µM | 99% | 0.8 µM | 90% | > 40 µM | – | – | –
COC(=O)c1cc2c([nH]c3ccccc32)c(C2Nc3ccccc3C(=O)N2C2CCCCC2)n1 (stereo unspecified) | – | 1% | – | inactive | – | – | – | –
COC(=O)c1cc2c([nH]c3ccccc32)c(C2Nc3ccccc3C(=O)N2C2CCCC2)n1 (stereo unspecified) | – | 30% | – | 20% | – | – | – | –
CCCN1C(=O)c2ccccc2NC1c1nc(C(=O)OC)cc2c1[nH]c1ccccc12 (stereo unspecified) | – | 9% | – | 7% | – | – | – | –
COC(=O)c1cc2c([nH]c3ccccc32)c(C2Nc3ccccc3C(=O)N2C2CCCCCC2)n1 (stereo unspecified) | – | inactive | – | inactive | – | – | – | –
COC(=O)c1cc2c([nH]c3ccccc32)c(C2Nc3ccccc3C(=O)N2C2CC2)n1 (stereo unspecified) | – | inactive | – | inactive | – | – | – | –
CCCCN1C(=O)c2ccccc2NC1c1nc(C(=O)OC)cc2c1[nH]c1ccccc12 (stereo unspecified) | – | 35% | – | 28% | – | – | – | –
sodium stibogluconate | – | – | – | – | – | – | – | 7
CCCCCCCCCCCCCCCCOP(=O)([O-])OCC[N+](C)(C)C [MILTEFOSINE] | 1.2 µM | – | – | – | 8.1 µM | 7 | 56.5 µM | –
COC(=O)c1cc2c([nH]c3ccccc32)c(C2Nc3ccccc3C(=O)N2c2ccccc2)n1 (stereo unspecified) | – | 18% | – | 16% | – | – | – | –

Now from value to molecule, other results behind:

IC50 (Leishmania donovani [1]) | inhibition [2] | Ki (Trypanothione reductase) | inhibition [4] | IC50 (Leishmania donovani [5]) | Molecule | Ratio CC50/IC50 [3] | CC50 at 72 h [6] | Ratio CC50/IC50 (Vero)
– | 11% | – | 6% | – | COC(=O)c1cc2c([nH]c3ccccc32)c(C2Nc3ccccc3C(=O)N2Cc2ccccc2)n1 (stereo unspecified) | – | – | –
5.4 µM | 60% | 9.2 µM | 56% | 35.2 µM | COC(=O)c1cc2c([nH]c3ccccc32)c(C2Nc3ccccc3C(=O)N2Cc2ccc(OC)cc2)n1 (stereo unspecified) | 3 | 106 µM | –
8.5 µM | 75% | 6.5 µM | 58% | > 40 µM | CCN1C(=O)c2ccccc2NC1c1nc(C(=O)OC)cc2c1[nH]c1ccccc12 (stereo unspecified) | – | – | –
4.8 µM | 85% | 3.7 µM | 77% | 4.3 µM | COC(=O)c1cc2c([nH]c3ccccc32)c(C2Nc3ccccc3C(=O)N2Cc2ccc(Cl)c(Cl)c2)n1 (stereo unspecified) | 24 | 104 µM | –
3.3 µM | 67% | 7.2 µM | 64% | 4.4 µM | COC(=O)c1cc2c([nH]c3ccccc32)c(C2Nc3ccccc3C(=O)N2c2ccc(Cl)cc2)n1 (stereo unspecified) | >91 | > 400 µM | –
– | inactive | – | inactive | – | COC(=O)c1cc2c([nH]c3ccccc32)c(C2Nc3ccccc3C(=O)N2c2ccc(OC)cc2)n1 (stereo unspecified) | – | – | –

Reference: ChEMBL document CHEMBL3734756, “Novel -carbolinequinazolinone hybrid as an inhibitor of Leishmania donovani trypanothione reductase: Synthesis, molecular docking and bioevaluation” (Medchemcomm, 2015)
